According to patent US20110294686A1, “EGFR INHIBITOR THERAPY RESPONSIVENESS” (priority 2008, published 2011):
Read-outs that look alike come from different tables or passages of the source.

Tests used:
[1] = system: Metastatic NSCLC patients; details: for Response to gefitinib therapy: metastatic NSCLC
[2] = system: chemo-refractory advanced stage NSCLC; details: phase II clinical trials; cited from earlier work
[3] = EIF3H FISH negative patients (mean <2.75)
[4] = EIF3H FISH positive patients (mean ≧2.75)
[5] = MYC FISH negative patients (mean <2.79)
[6] = MYC FISH positive patients (mean ≧2.79)

## COc1cc2ncnc(Nc3ccc(F)c(Cl)c3)c2cc1OCCCN1CCOCC1 [gefitinib]
[1]; [3]
  response rate (RR): 0%
  time to progression (TTP): 2.7 months
[1]; [4]
  response rate (RR): 32%
  survival (OS): 17.8 months
  time to progression (TTP): 4.4 months
[1]; EIF3H amplified patients (ratio EIF3H/CEP8>2)
  Response to gefitinib therapy: 30%
[1]; EIF3H non amplified patients
  Response to gefitinib therapy: 14%
[1]; [5]
  response rate (RR): 0%
  time to progression (TTP): 2.6 months
[1]; [6]
  response rate (RR): 31%
  time to progression (TTP): 4.4 months
[1]; MYC amplified patients
  Response to gefitinib therapy: 25%
[1]; MYC non-amplified patients
  Response to gefitinib therapy: 14%
[2]
  patients responding to treatment: 11-20%
